From patent US12404285B2, “KRAS G12D proteolysis targeting chimeras” (PAQ Therapeutics Inc., priority 2022, dated 2025) come the findings set out here.

T1 sequence (P01116 1-188 isoform P01116-2 G12D): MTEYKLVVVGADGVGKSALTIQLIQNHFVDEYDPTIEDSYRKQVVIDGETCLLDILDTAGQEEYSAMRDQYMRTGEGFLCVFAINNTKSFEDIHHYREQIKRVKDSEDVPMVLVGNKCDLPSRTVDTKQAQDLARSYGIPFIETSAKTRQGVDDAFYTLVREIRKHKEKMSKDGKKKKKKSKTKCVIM

The assay addresses T1, KRAS (G12D)-HiBit in AsPc-1-KRAS (G12D)-HiBit-KI cell (Homo sapiens, UniProt P01116, G12D).
T1 construct: host or cells: AsPc-1-KRAS (G12D)-HiBit-KI cells (knock-in line)
Nature of the assay: G12D HiBit assay. Type of assay: cell-based. The settings on record: 24 hours compound treatment, absolute DC50, read-out: Average PHA DC50. The essentials:
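Degradation of endogenous HiBiT-tagged KRAS G12D in AsPc-1 knock-in cells read after 24 h compound exposure (0.015-300 nM, 3-fold steps) by Nano-Glo HiBiT lytic luminescence. Signal normalised to DMSO-only cells; absolute DC50 derived by curve fitting.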
Background: HiBiT is a short tag that completes a luciferase, so light tracks the accessible tagged protein.
As to `C#Cc1c(F)ccc2cccc(-c3ncc4c(N5CC6CCC(C5)N6)nc(OC[C@@]56CCCN5[C@H](COC(=O)N(C)CCC5CCN(Cc7cccc8c7n(C)c(=O)n8C7CCC(=O)NC7=O)CC5)CC6)nc4c3F)c12` (stereo partly drawn) [Compound 134, [(3S,8S)-8-[[4-(3,8-diazabicyclo[3.2.1]octan-3-yl)-7-(8-ethynyl-7-fluoro-1-naphthyl)-8-fluoro-pyrido[4,3-d]pyrimidin-2-yl]oxymethyl]-1,2,3,5,6,7-hexahydropyrrolizin-3-yl]methyl N-[2-[1-[[1-(2,6-dioxo-3-piperidyl)-3-methyl-2-oxo-benzimidazol-4-yl]methyl]-4-piperidyl]ethyl]-N-methyl-carbamate], the DC50 was under 100 nM. For `C#Cc1c(F)ccc2cccc(-c3ncc4c(N5CC6CCC(C5)N6)nc(OC[C@@]56CCCN5[C@H](COC(=O)N5CCC7(CC5)CCN(c5cccc8c5n(C)c(=O)n8C5CCC(=O)NC5=O)CC7)CC6)nc4c3F)c12` (stereo partly drawn) [Compound 129, [(3S,8S)-8-[[4-(3,8-Diazabicyclo[3.2.1]octan-3-yl)-7-(8-ethynyl-7-fluoro-1-naphthyl)-8-fluoro-pyrido[4,3-d]pyrimidin-2-yl]oxymethyl]-1,2,3,5,6,7-hexahydropyrrolizin-3-yl]methyl9-[1-(2,6-dioxo-3-piperidyl)-3-methyl-2-oxo-benzimidazol-4-yl]-3,9-diazaspiro[5.5]undecane-3-carboxylate] the value was at least 300 nM.

`C#Cc1c(F)ccc2cccc(-c3ncc4c(N5CC6CCC(C5)N6)nc(OC[C@@]56CCCN5[C@H](COC(=O)NCCCN(C)C5CCN(c7cccc8c7n(C)c(=O)n8C7CCC(=O)NC7=O)CC5)CC6)nc4c3F)c12` (stereo partly drawn) [Compound 109, [(3S,8S)-8-[[4-(3,8-Diazabicyclo[3.2.1]octan-3-yl)-7-(8-ethynyl-7-fluoro-1-naphthyl)-8-fluoro-pyrido[4,3-d]pyrimidin-2-yl]oxymethyl]-1,2,3,5,6,7-hexahydropyrrolizin-3-yl]methylN-[3-[[1-[1-(2,6-dioxo-3-piperidyl)-3-methyl-2-oxo-benzimidazol-4-yl]-4-piperidyl]-methyl-amino]propyl]carbamate]: the DC50 is at least 300 nM.

Regarding `C#Cc1c(F)ccc2cccc(-c3ncc4c(N5CC6CCC(C5)N6)nc(OC[C@@]56CCCN5[C@H](COC(=O)N5CCC7(CC5)CC(CCc5cccc8c5n(C)c(=O)n8C5CCC(=O)NC5=O)C7)CC6)nc4c3F)c12` (stereo partly drawn) [Compound 124, [(3S,8S)-8-[[4-(3,8-Diazabicyclo[3.2.1]octan-3-yl)-7-(8-ethynyl-7-fluoro-1-naphthyl)-8-fluoro-pyrido[4,3-d]pyrimidin-2-yl]oxymethyl]-1,2,3,5,6,7-hexahydropyrrolizin-3-yl]methyl 2-[2-[1-(2,6-dioxo-3-piperidyl)-3-methyl-2-oxo-benzimidazol-4-yl]ethyl]-7-azaspiro[3.5]nonane-7-carboxylate], the DC50 is under 100 nM. As to `C#Cc1c(F)ccc2cccc(-c3ncc4c(N5CC6CCC(C5)N6)nc(OC[C@]56CCCN5[C@@H](COC(=O)N5CCC(CC7CCN(Cc8cccc9c8n(C)c(=O)n9C8CCC(=O)NC8=O)CC7)CC5)CC6)nc4c3F)c12` (stereo partly drawn) [Compound 77], the DC50 is 100 to 300 nM. With `C#Cc1c(F)ccc2cccc(-c3ncc4c(N5C[C@H]6CC[C@@H](C5)N6)nc(OC[C@@]56CCCN5[C@H](COC(=O)N5CCC(CC7CCN(Cc8cccc9c8n(C)c(=O)n9C8CCC(=O)NC8=O)CC7)CC5)CC6)nc4c3F)c12` (stereo partly drawn) [Compound 132, ((3S,7aS)-7a-(((4-((1R,5S)-3,8-Diazabicyclo[3.2.1]octan-3-yl)-7-(8-ethynyl-7-fluoronaphthalen-1-yl)-8-fluoropyrido[4,3-d]pyrimidin-2-yl)oxy)methyl)hexahydro-1H-pyrrolizin-3-yl)methyl4-((1-((1-(2,6-dioxopiperidin-3-yl)-3-methyl-2-oxo-2,3-dihydro-1H-benzo[d]imidazol-4-yl)methyl)piperidin-4-yl)methyl)piperidine-1-carboxylate], the DC50 was under 100 nM.
